Measurements taken from patent US20170334899A1, “AMINO-SUBSTITUTED ISOTHIAZOLES” (Bayer Pharma Aktiengesellschaft, priority 2014, published 2017).

Legend:
CDK2/CycE = biological target: T1, CDK2/CycE (Homo sapiens, UniProt P24941); experiment: CDK2/CycE kinase assay (TR-FRET); type: biochemical; conditions: avg, read-out: CDK2 avg (IC50 [mol/l])
T1 construct: GST; purchased ProQinase GmbH (Freiburg, Germany); host or cells: insect cells (Sf9)
Excerpt: CDK2/CycE -inhibitory activity of compounds of the present invention was quantified employing the CDK2/CycE TR-FRET assay as described in the following paragraphs.
Recombinant fusion proteins of GST and human CDK2 and of GST and human CycE, expressed in insect cells (Sf9) and purified by Glutathion-Sepharose affinity chromatography, were purchased from ProQinase GmbH (Freiburg, Germany). As substrate for the kinase reaction biotinylated peptide biotin-Ttds-YISPLKSPYKISEG (C-terminus in amid form) was used which can be purchased e.g. form the company JERINI peptide technologies (Berlin, Germany).
For the assay 50 nl of a 100fold concentrated solution of the test compound in DMSO was pipetted into a black low volume 384we11 microtiter plate (Greiner Bio-One, Frickenhausen, Germany), 2 μl of a solution of CDK2/CycE in aqueous assay buffer [50 mM Tris/HCl pH 8.0, 10 mM MgCl2, 1.0 mM dithiothreitol, 0.1 mM sodium ortho-vanadate, 0.01% (v/v) Nonidet-P40 (Sigma)] were added and the mixture was incubated for 15 min at 22° C. to allow pre-binding of the test compounds to the enzyme before the start of the kinase reaction. Then the kinase reaction was started by the addition of 3 μl of a solution of adenosine-tri-phosphate (ATP, 16.7 μM=>final conc. in the 5 μl assay volume is 10 μM) and substrate (1.25 μM=>final conc. in the 5 μl assay volume is 0.75 μM) in assay buffer and the resulting mixture was incubated for a reaction time of 25 min at 22° C. The concentration of CDK2/CycE was adjusted depending of the activity of the enzyme lot and was chosen appropriate to have the assay in the linear range, typical concentrations were in the range of 130 ng/ml. The reaction was stopped by the addition of 5 μl of a solution of TR-FRET detection reagents (0.2 μM streptavidine-XL665 [Cisbio Bioassays, Codolet, France] and 1 nM anti-RB(pSer807/pSer811)-antibody from BD Pharmingen [#558389] and 1.2 nM LANCE EU-W1024 labeled anti-mouse IgG antibody [Perkin-Elmer, product no. AD0077, as an alternative a Terbium-cryptate-labeled anti-mouse IgG antibody from Cisbio Bioassays can be used]) in an aqueous EDTA-solution (100 mM EDTA, 0.2% (w/v) bovine serum albumin in 100 mM HEPES/NaOH pH 7.0).
The resulting mixture was incubated 1 h at 22° C. to allow the formation of complex between the phosphorylated biotinylated peptide and the detection reagents. Subsequently the amount of phosphorylated substrate was evaluated by measurement of the resonance energy transfer from the Eu-chelate to the streptavidine-XL. Therefore, the fluorescence emissions at 620 nm and 665 nm after excitation at 350 nm was measured in a TR-FRET reader, e.g. a Rubystar (BMG Labtechnologies, Offenburg, Germany) or a Viewlux (Perkin-Elmer). The ratio of the emissions at 665 nm and at […] was taken as the measure for the amount of phosphorylated substrate. The data were normalised (enzyme reaction without inhibitor=0% inhibition, all other assay components but no enzyme=100% inhibition).

HeLa = experiment: Proliferation assay (crystal violet), HeLa; type: cell-based; conditions: Homo sapiens, HeLa, 96 h, HeLa cells; 4 days incubation; crystal violet staining; read-out: IC50 inhibition of proliferation, HeLa
Outline: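 Seed 1000–5000 cells/well, 10% FCS; 24 h later replace medium and add compound (0.001–10 μM, 0.5% DMSO); incubate 4 d; glutaraldehyde fix, 0.1% crystal violet pH 3.0, elute with 10% acetic acid; A595; 4-parameter IC50.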

IC50 (CDK2/CycE)	IC50 (HeLa)	SMILES
> 20 µM	0.16 µM	Cc1nsc(Nc2cnc(C(F)(F)F)cn2)c1C(=O)Nc1ccc(OC2CCN(CC(F)F)CC2)c(F)c1 [Example 164, N-(4-{[1-(2,2-difluoroethyl)piperidin-4-yl]oxy}-3-fluorophenyl)-3-methyl-5-{[5-(trifluoromethyl)pyrazin-2-yl]amino}-1,2-thiazole-4-carboxamide]
4.1 µM	9.9 µM	Cc1nsc(Nc2cncc(C(F)(F)F)n2)c1C(=O)Nc1ccc(C(=O)NCCN2CCCC(F)C2)cc1 (stereo not drawn) [Example 155, N-(4-{[2-(3-fluoropiperidin-1-yl)ethyl]carbamoyl}phenyl)-3-methyl-5-{[6-(trifluoromethyl)pyrazin-2-yl]amino}-1,2-thiazole-4-carboxamide]
> 20 µM	0.16 µM	Cc1nsc(Nc2cnc(C(F)(F)F)cn2)c1C(=O)Nc1ccc(O[C@H]2CCN(CC(F)(F)F)C[C@H]2F)nc1 [Example 145, N-(6-{[(3R,4S)-3-fluoro-1-(2,2,2-trifluoroethyl)piperidin-4-yl]oxy}pyridin-3-yl)-3-methyl-5-{[5-(trifluoromethyl)pyrazin-2-yl]amino}-1,2-thiazole-4-carboxamide]
> 20 µM	0.22 µM	CCCN1CC[C@@H](Oc2ccc(NC(=O)c3c(C)nsc3Nc3cnc(C(F)(F)F)cn3)cn2)[C@@H](F)C1 [Example 140, N-(6-{[(3S,4R)-3-fluoro-1-propylpiperidin-4-yl]oxy}pyridin-3-yl)-3-methyl-5-{[5-(trifluoromethyl)pyrazin-2-yl]amino}-1,2-thiazole-4-carboxamide]
> 20 µM	0.34 µM	CCCCN1CC[C@@H](Oc2ccc(NC(=O)c3c(C)nsc3Nc3cnc(C(F)(F)F)cn3)cn2)[C@@H](F)C1 [Example 141, N-(6-{[(3S,4R)-1-butyl-3-fluoropiperidin-4-yl]oxy}pyridin-3-yl)-3-methyl-5-{[5-(trifluoromethyl)pyrazin-2-yl]amino}-1,2-thiazole-4-carboxamide]
≥ 20 µM	10 µM	Cc1nsc(Nc2cnc3ccccc3n2)c1C(=O)Nc1cccc(C(=O)N2CCCC2)c1 [Example 113, 3-Methyl-N-[3-(pyrrolidin-1-ylcarbonyl)phenyl]-5-(quinoxalin-2-ylamino)-1,2-thiazole-4-carboxamide]
≥ 20 µM	0.69 µM	Cc1nsc(Nc2ccc(C#N)cn2)c1C(=O)Nc1ccc(C(=O)OC(C)(C)C)cc1 [Example 98, tert-Butyl 4-[({5-[(5-cyanopyridin-2-yl)amino]-3-methyl-1,2-thiazol-4-yl}carbonyl)-amino]benzoate]
≥ 20 µM	0.85 µM	Cc1nsc(Nc2cncc(C(F)(F)F)n2)c1C(=O)Nc1ccc(OCC2CCN(C(=O)OC(C)(C)C)C2)nc1 (stereo not drawn) [Example 110, tert-Butyl 3-{[(5-{[(3-methyl-5-{[6-(trifluoromethyl)pyrazin-2-yl]amino}-1,2-thiazol-4-yl)carbonyl]amino}pyridin-2-yl)oxy]methyl}pyrrolidine-1-carboxylate]
≥ 20 µM	10 µM	Cc1nsc(Nc2cnc3ccccc3n2)c1C(=O)Nc1cccc(C(=O)N2CCN(C)CC2)c1 [Example 102, 3-Methyl-N-{3-[(4-methylpiperazin-1-yl)carbonyl]phenyl}-5-(quinoxalin-2-ylamino)-1,2-thiazole-4-carboxamide]
≥ 20 µM	0.33 µM	Cc1nsc(Nc2cnc(C(F)(F)F)cn2)c1C(=O)Nc1ccc(OC2CCN(CCC(F)(F)F)CC2)nc1 [Example 10, 3-Methyl-5-{[5-(trifluoromethyl)pyrazin-2-yl]amino}-N-(6-{[1-(3,3,3-trifluoropropyl)-piperidin-4-yl]oxy}pyridin-3-yl)-1,2-thiazole-4-carboxamide]
> 20 µM	0.16 µM	Cc1nsc(Nc2cnc(C(F)(F)F)cn2)c1C(=O)Nc1ccc(OC2CCN(CC(F)(F)F)CC2)c(F)c1 [Example 163, N-(3-fluoro-4-{[1-(2,2,2-trifluoroethyl)piperidin-4-yl]oxy}phenyl)-3-methyl-5-{[5-(trifluoromethyl)pyrazin-2-yl]amino}-1,2-thiazole-4-carboxamide]
> 20 µM	> 10 µM	Cc1nsc(Nc2cnc3ccccc3n2)c1C(=O)Nc1ccc(C(=O)N2CCN(CC(F)F)CC2)cc1 [Example 157, N-(4-{[4-(2,2-difluoroethyl)piperazin-1-yl]carbonyl}phenyl)-3-methyl-5-(quinoxalin-2-ylamino)-1,2-thiazole-4-carboxamide]
> 20 µM	2.8 µM	Cc1nsc(Nc2cnc(C(F)(F)F)cn2)c1C(=O)Nc1ccc(C(=O)NCCN2CCCC(F)(F)C2)cc1 [Example 153, N-(4-{[2-(3,3-difluoropiperidin-1-yl)ethyl]carbamoyl}phenyl)-3-methyl-5-{[5-(trifluoromethyl)pyrazin-2-yl]amino}-1,2-thiazole-4-carboxamide]
> 20 µM	0.46 µM	Cc1nsc(Nc2cnc(C(F)(F)F)cn2)c1C(=O)Nc1ccc(OC[C@@H]2CCN(CC(F)F)C2)nc1 [Example 127, N-(6-{[(3R)-1-(2,2-difluoroethyl)pyrrolidin-3-yl]methoxy}pyridin-3-yl)-3-methyl-5-{[5-(trifluoromethyl)pyrazin-2-yl]amino}-1,2-thiazole-4-carboxamide]
≥ 20 µM	0.88 µM	Cc1nsc(Nc2cnc3ccccc3n2)c1C(=O)Nc1ccc(Oc2cccc(C(F)(F)F)c2)nc1 [Example 117, 3-Methyl-5-(quinoxalin-2-ylamino)-N-{6-[3-(trifluoromethyl)phenoxy]pyridin-3-yl}-1,2-thiazole-4-carboxamide]
≥ 20 µM	0.2 µM	Cc1nsc(Nc2cnc(C(F)(F)F)cn2)c1C(=O)Nc1ccc(OCC2CCN(C(=O)OC(C)(C)C)C2)nc1 (stereo not drawn) [Example 109, tert-Butyl 3-{[(5-{[(3-methyl-5-{[5-(trifluoromethyl)pyrazin-2-yl]amino}-1,2-thiazol-4-yl)carbonyl]amino}pyridin-2-yl)oxy]methyl}pyrrolidine-1-carboxylate]
> 20 µM	6.2 µM	Cc1nsc(Nc2ccc(C#N)cn2)c1C(=O)Nc1ccc(NC2CCCN(C(=O)OC(C)(C)C)C2)nc1 (stereo not drawn) [Example 171, tert-butyt 3-({5-[({5-[(5-cyanopyridin-2-yl)amino]-3-methyl-1,2-thiazol-4-yl}carbonyl)amino]pyridin-2-yl}amino)piperidine-1-carboxylate]
> 20 µM	2.3 µM	Cc1nsc(Nc2cnc3ccccc3n2)c1C(=O)Nc1ccc(C(=O)N2CCCN(CC(F)(F)F)CC2)cc1 [Example 159]
> 20 µM	0.45 µM	Cc1nsc(Nc2cnc(C(F)(F)F)cn2)c1C(=O)Nc1ccc(OC[C@H]2CCN(CCC(F)(F)F)C2)nc1 [Example 134, 3-Methyl-5-{[5-(trifluoromethyl)pyrazin-2-yl]amino}-N-(6-{[(3S)-1-(3,3,3-trifluoropropyl)pyrrolidin-3-yl]methoxy}pyridin-3-yl)-1,2-thiazole-4-carboxamide]
> 20 µM	0.42 µM	Cc1nsc(Nc2cnc(C(F)(F)F)cn2)c1C(=O)Nc1ccc(OC[C@H]2CCN(CC(F)(F)F)C2)nc1 (racemic) [Example 133, 3-Methyl-N-(6-{[(SR)-1-(2,2,2-trifluoroethyl)pyrrolidin-3-yl]methoxy}pyridin-3-yl)-5-{[5-(trifluoromethyl)pyrazin-2-yl]amino}-1,2-thiazole-4-carboxamide]
≥ 20 µM	10 µM	COC(=O)CNC(=O)c1cccc(NC(=O)c2c(C)nsc2Nc2cnc3ccccc3n2)c1 [Example 100, Methyl N-[3-({[3-methyl-5-(quinoxalin-2-ylamino)-1,2-thiazol-4-yl]carbonyl}amino)-benzoyl]glycinate]
